{"source": "patent US10159670B2", "about": "“Methods of diagnosing and treating motor neuron diseases and other cellular stress-related diseases” (priority 2012, dated 2018)", "type_in_all_cases": "cell-based", "key": {"[1]": {"test_system": "mouse embryonic fibroblasts (MEFs)", "assay": "pre-miRNA and miRNA levels in mouse embryonic fibroblasts under stress", "method": "(§1) (FIG. 7A) miRNA expression level analysis in the motor neuron cell line NSC-34, treated with 6.25 nM Thapsigargin for 24 hrs, relative to cells treated with carrier alone (DMSO). Shown are average and s.d. of qPCR analyses of 3 independent experiments. Pre-miRNAs (light grey, normalized to Gapdh) and miRNAs (dark grey, normalized to Snord68). (FIG. 7B) mRNA levels encoding for proteins involved in the canonical stress response, normalized to the expression of beta-actin. (FIG. 7C) miRNA expression level analysis in mouse embryonic motor neurons, treated with 5 nM Thapsigargin for 72 hrs, relative to cells treated with carrier alone (DMSO). Shown are average and s.d. of qPCR analyses of three independent experiments. Pre-miRNAs (light grey, normalized to Gapdh and beta actin) and miRNAs (dark grey, normalized to Snord70). (FIG. 7D) mRNA markers of the canonical stress response, normalized to the expression of beta-actin. miRNA expression level analysis in NSC-34 cells, treated with Paraquat (PQ) (1 mM, 12 hrs, FIG. 7E) and sodium arsenite (0.5 mM, 60 min, FIG. 7F). pre-miRNA normalized to beta-actin mRNA (FIGS. 7E-F) and miRNAs to 5S (FIG. 7E) or to U6 and 5S (FIG. 7F). (FIGS. 7G-I) miRNA expression level analysis in mouse embryonic Wild-type fibroblasts (light grey) or phospho-mutant eIF2a S51A cells (black) treated with Thapsigargin (5 nM, 72 hrs) relative to carrier alone. Pre-miRNA (FIG. 7G) and mature miRNA (FIG. 7H) levels normalized to Gapdh and Snord68, respectively. (FIG. 7I) ATF4, which is induced by phosphorylation of eIF2a, was not induced in phospho-mutant eIF2a S51A cells. Significance of p-values from ANOVA tests is indicated by *p<0.05; **p<0.01. (FIGS. 7J-K) Western-Blot analysis of lysates from untreated NSC-34 cells (control) or cells treated with sodium arsenite (0.5 mM, 60 min). Phospho-specific immunodetection of eIF2a S51 phosphorylation (peIF2a) and total eIF2a levels (FIG. 7J), Dicer and Ago2 levels (FIG. 7K). (FIG. 7L) miRNA expression level analysis in mouse embryonic fibroblasts treated with Puromycin (1 μg/ml, 24 hrs), relative to cells treated with carrier alone (water). Pre-miRNAs (light grey, normalized to Gapdh) and miRNAs (dark grey, normalized to Snord68).\n(FIG. 9A) The ratio of pre-miRNA to mature miRNA levels in NSC-34 cells, transfected with plasmids as indicated and in cells treated for 72 hrs with carrier alone (water, black) or with cycloheximide (CHX, 0.02 μg/ml, gray). Data normalized to control plasmid transfection. Pre-miRNAs further normalized to Gapdh (for FUS R495X, TDP-43 A315T) or to beta-actin (SOD1 G93A) and miRNA levels normalized to Snord68. Average of three independent experiments except for pre-miRNAs in the study of FUS R495X (n=2). Targeted quantitative mass spectrometry analysis of changes in the binding of Ago2 or Dicer to a set of proteins interactors under stress (FIGS. 9B-E). Immunoprecipitated Ago2-Flag (FIG. 9B) or Dicer-Flag (FIG. 9C) from HEK 293 cells, cultured under basal conditions or treated with sodium arsenite (0.5 mM, 60 min) was subjected to targeted mass-spectrometry analysis. Data is averaged from two or three different peptide standards per protein and normalized to the levels of co-immunoprecipiated peptides from untreated cells. Statistically significant result in a student t-test, between arsenite and control treatment is denoted (*p<0.05). Targeted mass spectrometry of (FIG. 9D) Dicer cofactors or (FIG. 9E) SG components, immunoprecipitated with AGO-Flag in FUS R495X-expressing HEK 293 that were further treated for 72 hrs with carrier alone or Cycloheximide (0.02 μg/ml). (FIG. 9F) The ratio of pre-miRNA to mature miRNA levels in mouse embryonic fibroblasts, pretreated for 5 hrs with HSP90 inhibitors (17-AAG, 1 μM or Geldanamycin, 1 μM) and then incubated for 36 more hours with Thapsigargin (5 nM) in combinations with the respective HSP90 inhibitor. […]"}, "NSC-34 cells": {"test_system": "NSC-34 cells", "assay": "Stress-induced change of pre-miRNA processing in NSC-34 cells (qPCR)", "method": "as §1\nRNA was extracted using Tri reagent (Molecular Research Center Inc.) or Qiazol with consecutive use of the miRNeasy Mini Kit (Qiagen). Pre-miRNA and miRNA reverse transcription was performed using miScript Kits No. I & II (Qiagen). Quantitative analysis of miRNA and pre-miRNA expression performed in more than 3 independent biological repeats and additionally in technical duplicates with StepOnePlus quantitative Real-Time PCR System and 2-sided ANOVA-test performed with DataAssist Software (Life technologies Inc.). Next-generation sequencing of mouse precursor miRNAs and mature miRNAs was performed on two independent experimental repeats, as described in Newman et al. [Newman et al. (2011) RNA 17(10): 1795-1803]. miRNAs were normalized to spiked-in controls and pre-miRNAs were normalized to Snord72 and Snord95.\nStress and cytoplasmic stress granules (SGs) emerge as major pathogenic mechanisms of ALS [Kim et al. (2014) Nat Genet 46(2): 152-160]. Stress pathways are thought to control miRNA activity [Etude and Hornstein, EMBO J. (2014) July 1; 33(13):1428-37], but the idea that cellular stress might broadly regulate miRNA biogenesis was not yet tested. This hypothesis was tested herein by measurement of the relative expression levels of mature miRNAs and their precursors, pre-miRNAs, which provides a proxy for the efficacy of Dicer complex activity. […] Two other chemicals were tested that drive oxidative stress, namely Paraquat (PQ, 12 hrs, 1 mM) and sodium arsenite (1 hr, 0.5 mM). […] Therefore, several different cellular stress pathways negatively regulate miRNA biogenesis."}, "[2]": {"test_system": "mouse embryonic motor neurons", "assay": "Stress-induced change of miRNA biogenesis in primary mouse motor neurons", "settings": "5 nM, 72 hrs", "method": "(FIG. 7A) miRNA expression level analysis in the motor neuron cell line NSC-34, treated with 6.25 nM Thapsigargin for 24 hrs, relative to cells treated with carrier alone (DMSO). Shown are average and s.d. of qPCR analyses of 3 independent experiments. Pre-miRNAs (light grey, normalized to Gapdh) and miRNAs (dark grey, normalized to Snord68). (FIG. 7B) mRNA levels encoding for proteins involved in the canonical stress response, normalized to the expression of beta-actin. (FIG. 7C) miRNA expression level analysis in mouse embryonic motor neurons, treated with 5 nM Thapsigargin for 72 hrs, relative to cells treated with carrier alone (DMSO). Shown are average and s.d. of qPCR analyses of three independent experiments. Pre-miRNAs (light grey, normalized to Gapdh and beta actin) and miRNAs (dark grey, normalized to Snord70). (FIG. 7D) mRNA markers of the canonical stress response, normalized to the expression of beta-actin. miRNA expression level analysis in NSC-34 cells, treated with Paraquat (PQ) (1 mM, 12 hrs, FIG. 7E) and sodium arsenite (0.5 mM, 60 min, FIG. 7F). pre-miRNA normalized to beta-actin mRNA (FIGS. 7E-F) and miRNAs to 5S (FIG. 7E) or to U6 and 5S (FIG. 7F). (FIGS. 7G-I) miRNA expression level analysis in mouse embryonic Wild-type fibroblasts (light grey) or phospho-mutant eIF2a S51A cells (black) treated with Thapsigargin (5 nM, 72 hrs) relative to carrier alone. […]"}}, "data": [{"smiles": "C=CCNC1=C2C[C@@H](C)C[C@H](OC)[C@H](O)[C@@H](C)/C=C(\\C)[C@H](OC(N)=O)[C@@H](OC)/C=C\\C=C(/C)C(=O)NC(=CC1=O)C2=O", "note": "[17-AAG]", "values": [{"measurement": "Thapsigargin-induced inhibition of miRNA biogenesis (ratio of pre-miRNA to mature miRNA)", "setting": "[1]; HSP90 inhibitor 1 μM, 5 hrs pretreatment, then 36 hrs with Thapsigargin 5 nM", "value": "aggravated Thapsigargin-induced inhibition of miRNA biogenesis"}]}, {"smiles": "C[n+]1ccc(-c2cc[n+](C)cc2)cc1", "note": "[Paraquat]", "values": [{"measurement": "mature miRNAs", "setting": "NSC-34 cells; PQ, 12 hrs, 1 mM", "value": "down-regulation of mature miRNAs"}, {"measurement": "pre-miRNA levels", "setting": "NSC-34 cells; PQ, 12 hrs, 1 mM", "value": "up-regulation of pre-miRNA levels"}]}, {"smiles": "COc1ccc(C[C@H](N)C(=O)N[C@H]2[C@@H](O)[C@H](n3cnc4c(N(C)C)ncnc43)O[C@@H]2CO)cc1", "note": "[Puromycin]", "values": [{"measurement": "efficacy of pre-miRNA biogenesis", "setting": "[1]; 1 μg/ml, 24 hrs", "value": "decreased the efficacy of pre-miRNA biogenesis"}]}, {"smiles": "C/C=C(/C)C(=O)O[C@H]1C(C)=C2[C@H]([C@@H]1OC(=O)CCCCCCC)[C@@](C)(OC(C)=O)C[C@H](OC(=O)CCC)[C@@]1(O)[C@H]2OC(=O)[C@@]1(C)O", "note": "[Thapsigargin]", "values": [{"measurement": "markers of ER-stress", "setting": "[2]", "value": "up-regulated markers of ER-stress"}, {"measurement": "miRNA biogenesis", "setting": "[2]", "value": "affected miRNA biogenesis"}, {"measurement": "RNA markers of ER-stress: ASNS, ATF4, CHOP and GRP78", "setting": "NSC-34 cells; 6.25 nM, 24 hrs", "value": "up-regulation of RNA markers of ER-stress"}, {"measurement": "mature miRNAs levels", "setting": "NSC-34 cells; 6.25 nM, 24 hrs", "value": "down-regulate mature miRNAs levels"}, {"measurement": "miRNA precursors levels", "setting": "NSC-34 cells; 6.25 nM, 24 hrs", "value": "up-regulate miRNA precursors levels"}, {"measurement": "ATF4 mRNA levels", "setting": "[1]; eIF2a S51A MEFs, 5 nM, 72 hrs", "value": "failed to upregulate ATF4 mRNA levels"}, {"measurement": "Dicer inhibition (pre-miRNA and mature miRNA levels)", "setting": "[1]; eIF2a S51A MEFs, 5 nM, 72 hrs", "value": "partial recovery from Thapsigargin-induced Dicer inhibition"}, {"measurement": "mature miRNA species", "setting": "[1]; wild-type MEFs, 5 nM, 72 hrs", "value": "relative depletion of the corresponding mature miRNA species"}, {"measurement": "pre-miRNAs", "setting": "[1]; wild-type MEFs, 5 nM, 72 hrs", "value": "accumulation of pre-miRNAs"}]}]}
